A short description of series [1]: Solubility / miscibility in water and formulating agents. In kind it is physicochemical.
The conditions of series [2]: cited from earlier work.

In the case of `COc1cc(C=O)ccc1O` [Vanillin], the “solubility in polyethylene glycol” value in series [1] (polyethylene glycol) is “considerably soluble”. Also, in series [1] (tetra ethyl ortho silicate), the “solubility in tetra ethyl ortho silicate” value is “considerably soluble”. The solubility in water in series [2] (according to the Merck index) is reported as 1 gram in 100 ml water. The solubility in alcohol result in series [2] (compared with water, Merck index) was “more soluble”.

The values are drawn from patent publication US20080311233A1, “Naturally Occurring Phenolic Substances Useful as Pesticides” (priority 2004, published 2008).
